Test results from patent publication US7728003B2, “5-oxo-5,8-dihydro-pyrido-pyrimidines as inhibitors of c-fms kinase” (Janssen Pharmaceutica N.V., priority 2005, dated 2010).

Target: c-fms (Homo sapiens, UniProt P07333)
Assay: c-fms autophosphorylation, fluorescence polarization competition immunoassay
Assay type: biochemical
Settings: 10 nM c-fms, 1 mM ATP; for inhibition at 0.1 µM: test concentration 0.1 μM, read-out: c-fms Autophosphorylation Percent Inhibition, % @ 0.1 μM; for inhibition at 1 µM: test concentration 1 μM, read-out: c-fms Autophosphorylation Percent Inhibition, % @ 1 μM
Method: The assay buffer used was 100 mM 4-(2-hydroxyethyl)piperazine 1-ethanesulfonic acid (HEPES), pH 7.5, 1 mM 1,4-dithio-DL-threitol (DTT), 0.01% (v/v) Tween-20. Compounds were diluted in assay buffer containing 4% dimethylsulfoxide (DMSO) just prior to the assay. To each well, 5 μL of compound were added followed by the addition of 3 μL of a mix containing 33 nM c-fms and 16.7 mM MgCl2 (Sigma) in assay buffer. The kinase reaction was initiated by adding 2 μL of 5 mM ATP (Sigma) in assay buffer. The final concentrations in the assay were 10 nM c-fms, 1 mM ATP, 5 mM MgCl2, 2% DMSO. Control reactions were ran in each plate: in positive and negative control wells, assay buffer (made 4% in DMSO) was substituted for the compound; in addition, positive control wells received 1.2 μL of 50 mM ethylenediaminetetraaceticacid (EDTA).
The plates were incubated at room temperature for 45 min. At the end of the incubation, the reaction was quenched with 1.2 μL of 50 mM EDTA (EDTA was not added to the positive control wells at this point; see above). Following a 5-min incubation, each well received 10 μL of a 1:1:3 mixture of anti-phosphotyrosine antibody, 10X, PTK green tracer, 10X (vortexed), FP dilution buffer, respectively (all from PanVera, cat. # P2837). The plate was covered, incubated for 30 min at room temperature and the fluorescence polarization was read on the Analyst. The instrument settings were: 485 nm excitation filter; 530 nm emission filter; Z height: middle of well; G factor: 0.93.
The percent inhibition is shown in Table 1 at the indicated test concentration. The IC50 shown in Table 2 are averages of three independent measurements.

Chain of c-fms (P07333 20-972): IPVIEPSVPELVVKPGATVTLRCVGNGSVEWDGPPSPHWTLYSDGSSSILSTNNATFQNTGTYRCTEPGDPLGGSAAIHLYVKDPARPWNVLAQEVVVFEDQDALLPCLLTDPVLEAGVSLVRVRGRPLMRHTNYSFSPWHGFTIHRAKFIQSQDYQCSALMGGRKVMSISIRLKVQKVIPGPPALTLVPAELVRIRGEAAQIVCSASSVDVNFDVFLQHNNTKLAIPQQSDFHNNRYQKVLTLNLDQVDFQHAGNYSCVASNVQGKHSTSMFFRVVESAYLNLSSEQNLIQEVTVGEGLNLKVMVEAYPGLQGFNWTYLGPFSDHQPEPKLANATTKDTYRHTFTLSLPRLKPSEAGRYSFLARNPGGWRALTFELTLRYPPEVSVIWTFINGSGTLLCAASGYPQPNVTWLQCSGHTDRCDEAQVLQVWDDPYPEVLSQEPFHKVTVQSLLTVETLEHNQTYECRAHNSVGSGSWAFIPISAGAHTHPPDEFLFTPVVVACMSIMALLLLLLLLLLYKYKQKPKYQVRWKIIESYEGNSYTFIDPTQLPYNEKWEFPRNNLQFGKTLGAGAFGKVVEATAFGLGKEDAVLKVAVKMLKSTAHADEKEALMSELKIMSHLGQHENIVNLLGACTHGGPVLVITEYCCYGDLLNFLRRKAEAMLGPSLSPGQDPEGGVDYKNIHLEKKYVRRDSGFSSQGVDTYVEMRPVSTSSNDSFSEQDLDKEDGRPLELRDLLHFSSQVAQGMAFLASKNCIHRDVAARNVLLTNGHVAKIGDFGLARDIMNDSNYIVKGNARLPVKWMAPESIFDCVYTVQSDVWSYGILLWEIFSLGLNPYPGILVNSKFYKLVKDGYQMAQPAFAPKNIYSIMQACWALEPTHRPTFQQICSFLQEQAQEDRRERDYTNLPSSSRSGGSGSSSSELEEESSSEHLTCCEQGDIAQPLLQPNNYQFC

inhibition at 0.1 µM	inhibition at 1 µM	SMILES
5%	24%	CNC(=O)c1cn(-c2ccc3c(c2)CCC3)c2nc(NCCCN3CCCC3=O)ncc2c1=O [Cpd 14, 8-Indan-5-yl-5-oxo-2-[3-(2-oxo-pyrrolidin-1-yl)-propylamino]-5,8-dihydro-pyrido[2,3-d]pyrimidine-6-carboxylic acid methylamide]
8%	29%	CNC(=O)c1cn(-c2ccc3c(c2)CCC3)c2nc(NCCCN3CCN(C)CC3)ncc2c1=O [Cpd 15, 8-Indan-5-yl-2-[3-(4-methyl-piperazin-1-yl)-propylamino]-5-oxo-5,8-dihydro-pyrido[2,3-d]pyrimidine-6-carboxylic acid methylamide]
12%	39%	CNC(=O)c1cn(-c2ccc3c(c2)CCC3)c2nc(NCCOC)ncc2c1=O [Cpd 16, 8-Indan-5-yl-2-(2-methoxy-ethylamino)-5-oxo-5,8-dihydro-pyrido[2,3-d]pyrimidine-6-carboxylic acid methylamide]
15%	36%	CNC(=O)c1cn(-c2ccc3c(c2)CCC3)c2nc(NCCc3ccc(OC)cc3)ncc2c1=O [Cpd 17, 8-Indan-5-yl-2-[2-(4-methoxy-phenyl)-ethylamino]-5-oxo-5,8-dihydro-pyrido[2,3-d]pyrimidine-6-carboxylic acid methylamide]
12%	35%	CNC(=O)c1cn(-c2ccc3c(c2)CCC3)c2nc(NCCN3CCOCC3)ncc2c1=O [Cpd 18, 8-Indan-5-yl-2-(2-morpholin-4-yl-ethylamino)-5-oxo-5,8-dihydro-pyrido[2,3-d]pyrimidine-6-carboxylic acid methylamide]
36%	70%	CONC(=O)c1cn(-c2ccc3c(c2)CCC3)c2nc(NCCCn3ccnc3)ncc2c1=O [Cpd 19, 2-(3-Imidazol-1-yl-propylamino)-8-indan-5-yl-5-oxo-5,8-dihydro-pyrido[2,3-d]pyrimidine-6-carboxylic acid methoxy-amide]
20%	52%	CONC(=O)c1cn(-c2ccc3c(c2)CCC3)c2nc(NCCCN(C)C)ncc2c1=O [Cpd 20, 2-(3-Dimethylamino-propylamino)-8-indan-5-yl-5-oxo-5,8-dihydro-pyrido[2,3-d]pyrimidine-6-carboxylic acid methoxy-amide]
50%	82%	COCCCNc1ncc2c(=O)c(C(=O)NOC)cn(-c3ccc4c(c3)CCC4)c2n1 [Cpd 21, 8-Indan-5-yl-2-(3-methoxy-propylamino)-5-oxo-5,8-dihydro-pyrido[2,3-d]pyrimidine-6-carboxylic acid methoxy-amide]
40%	72%	CONC(=O)c1cn(-c2ccc3c(c2)CCC3)c2nc(NCCCN3CCCC3=O)ncc2c1=O [Cpd 22, 8-Indan-5-yl-5-oxo-2-[3-(2-oxo-pyrrolidin-1-yl)-propylamino]-5,8-dihydro-pyrido[2,3-d]pyrimidine-6-carboxylic acid methoxy-amide]
51%	65%	COCCNc1ncc2c(=O)c(C(=O)NOC)cn(-c3ccc4c(c3)CCC4)c2n1 [Cpd 23, 8-Indan-5-yl-2-(2-methoxy-ethylamino)-5-oxo-5,8-dihydro-pyrido[2,3-d]pyrimidine-6-carboxylic acid methoxy-amide]
52%	59%	CONC(=O)c1cn(-c2ccc3c(c2)CCC3)c2nc(NCCc3ccc(OC)cc3)ncc2c1=O [Cpd 24, 8-Indan-5-yl-2-[2-(4-methoxy-phenyl)-ethylamino]-5-oxo-5,8-dihydro-pyrido[2,3-d]pyrimidine-6-carboxylic acid methoxy-amide]
6%	30%	CONC(=O)c1cn(-c2ccc3c(c2)CCC3)c2nc(NCCN3CCCCC3)ncc2c1=O [Cpd 25, 8-Indan-5-yl-5-oxo-2-(2-piperidin-1-yl-ethylamino)-5,8-dihydro-pyrido[2,3-d]pyrimidine-6-carboxylic acid methoxy-amide]
25%	54%	CONC(=O)c1cn(-c2ccc3c(c2)CCC3)c2nc(NCCN3CCOCC3)ncc2c1=O [Cpd 26, 8-Indan-5-yl-2-(2-morpholin-4-yl-ethylamino)-5-oxo-5,8-dihydro-pyrido[2,3-d]pyrimidine-6-carboxylic acid methoxy-amide]
15%	41%	CONC(=O)c1cn(-c2ccc3c(c2)CCC3)c2nc(NCc3cc(OC)cc(OC)c3)ncc2c1=O [Cpd 27, 2-(3,5-Dimethoxy-benzylamino)-8-indan-5-yl-5-oxo-5,8-dihydro-pyrido[2,3-d]pyrimidine-6-carboxylic acid methoxy-amide]
31%	69%	NC(=O)c1cn(C2CCCCC2)c2nc(NCCCn3ccnc3)ncc2c1=O [Cpd 28, 8-Cyclohexyl-2-(3-imidazol-1-yl-propylamino)-5-oxo-5,8-dihydro-pyrido[2,3-d]pyrimidine-6-carboxylic acid amide]
22%	65%	CN(C)CCCNc1ncc2c(=O)c(C(N)=O)cn(C3CCCCC3)c2n1 [Cpd 29, 8-Cyclohexyl-2-(3-dimethylamino-propylamino)-5-oxo-5,8-dihydro-pyrido[2,3-d]pyrimidine-6-carboxylic acid amide]
24%	68%	NC(=O)c1cn(C2CCCCC2)c2nc(NCCCN3CCOCC3)ncc2c1=O [Cpd 30, 8-Cyclohexyl-2-(3-morpholin-4-yl-propylamino)-5-oxo-5,8-dihydro-pyrido[2,3-d]pyrimidine-6-carboxylic acid amide]
25%	62%	COCCCNc1ncc2c(=O)c(C(N)=O)cn(C3CCCCC3)c2n1 [Cpd 31, 8-Cyclohexyl-2-(3-methoxy-propylamino)-5-oxo-5,8-dihydro-pyrido[2,3-d]pyrimidine-6-carboxylic acid amide]
17%	52%	NC(=O)c1cn(C2CCCCC2)c2nc(NCCCN3CCCC3=O)ncc2c1=O [Cpd 32, 8-Cyclohexyl-5-oxo-2-[3-(2-oxo-pyrrolidin-1-yl)-propylamino]-5,8-dihydro-pyrido[2,3-d]pyrimidine-6-carboxylic acid amide]
31%	70%	CN1CCN(CCCNc2ncc3c(=O)c(C(N)=O)cn(C4CCCCC4)c3n2)CC1 [Cpd 33, 8-Cyclohexyl-2-[3-(4-methyl-piperazin-1-yl)-propylamino]-5-oxo-5,8-dihydro-pyrido[2,3-d]pyrimidine-6-carboxylic acid amide]
31%	64%	NC(=O)c1cn(C2CCCCC2)c2nc(NCCCN3CCCC3)ncc2c1=O [Cpd 34, 8-Cyclohexyl-5-oxo-2-(3-pyrrolidin-1-yl-propylamino)-5,8-dihydro-pyrido[2,3-d]pyrimidine-6-carboxylic acid amide]
29%	67%	COCCNc1ncc2c(=O)c(C(N)=O)cn(C3CCCCC3)c2n1 [Cpd 35, 8-Cyclohexyl-2-(2-methoxy-ethylamino)-5-oxo-5,8-dihydro-pyrido[2,3-d]pyrimidine-6-carboxylic acid amide]
5%	49%	NC(=O)c1cn(C2CCCCC2)c2nc(NCCN3CCCC3)ncc2c1=O [Cpd 36, 8-Cyclohexyl-5-oxo-2-(2-pyrrolidin-1-yl-ethylamino)-5,8-dihydro-pyrido[2,3-d]pyrimidine-6-carboxylic acid amide]
29%	41%	COc1ccc(CCNc2ncc3c(=O)c(C(N)=O)cn(C4CCCCC4)c3n2)cc1 [Cpd 37, 8-Cyclohexyl-2-[2-(4-methoxy-phenyl)-ethylamino]-5-oxo-5,8-dihydro-pyrido[2,3-d]pyrimidine-6-carboxylic acid amide]
19%	56%	NC(=O)c1cn(C2CCCCC2)c2nc(NCCN3CCCCC3)ncc2c1=O [Cpd 38, 8-Cyclohexyl-5-oxo-2-(2-piperidin-1-yl-ethylamino)-5,8-dihydro-pyrido[2,3-d]pyrimidine-6-carboxylic acid amide]
21%	59%	NC(=O)c1cn(C2CCCCC2)c2nc(NCCN3CCOCC3)ncc2c1=O [Cpd 39, 8-Cyclohexyl-2-(2-morpholin-4-yl-ethylamino)-5-oxo-5,8-dihydro-pyrido[2,3-d]pyrimidine-6-carboxylic acid amide]
10%	47%	COc1cc(CNc2ncc3c(=O)c(C(N)=O)cn(C4CCCCC4)c3n2)cc(OC)c1 [Cpd 40, 8-Cyclohexyl-2-(3,5-dimethoxy-benzylamino)-5-oxo-5,8-dihydro-pyrido[2,3-d]pyrimidine-6-carboxylic acid amide]
